Results on nine molecules are retold here after US9745341B2, “Tubulysins and processes for preparing” (priority 2007, dated 2017).

Usually IC50 stands for the point on the concentration scale where inhibition reaches its midpoint. The term pIC50 denotes −log10 of the IC50, conventionally taken in molar units.

pIC50: −log10 of the molar value. Read-outs that look alike come from different tables or passages of the source.

The subject of this data set is folate receptor-positive KB cells. Briefly: In vitro concentration-dependent cytotoxic activity (3H-thymidine incorporation). Type of data set: cell-based. The following applies: for IC50: Homo sapiens, KB, read-out: Cytotoxicity IC50 (nM); for pIC50: concentration required to reduce 3H-thymidine incorporation into newly synthesized DNA by 50%, 2 h pulse at 37° C., chase up to 70 h, read-out: Cytotoxicity IC50. The procedure:
The compounds described herein are evaluated using an in vitro cytotoxicity assay that predicts the ability of the drug to inhibit the growth of folate receptor-positive KB cells. The KB cells are exposed for up to 7 h at 37° C. over a range of concentrations of folate-drug conjugate in the absence or presence of at least a 100-fold excess of folic acid. The cells are then rinsed once with fresh culture medium and incubated in fresh culture medium for 72 hours at 37° C. Cell viability is assessed using a ^3H-thymidine incorporation assay.
Cells were heavily seeded in 24-well Falcon plates and allowed to form nearly confluent monolayers overnight. Thirty minutes prior to the addition of test article, spent medium was aspirated from all wells and replaced with fresh folate-free RPMI (FFRPMI). Note, designated wells received media containing 100 μM folic acid; and, cells within the latter wells were used to determine the targeting specificity, since cytotoxic activity produced in the presence of excess folic acid (enables competition for FR binding) would signify the portion of the total activity that was unrelated to FR-specific delivery. Following one rinse with 1 mL of fresh FFRPMI containing 10% heat-inactivated fetal calf serum, each well received 1 mL of media containing increasing concentrations of test article (4 wells per sample) in the presence or absence of 100 μM free folic acid (a binding site competitor). Treated cells were pulsed for 2 h at 37° C., rinsed 4 times with 0.5 mL of media, and then chased in 1 mL of fresh media up to 70 h. Spent media was aspirated from all wells and replaced with fresh media containing 5 μCi/mL ^3H-thymidine. Following a further 2 h 37° C. incubation, cells were washed 3 times with 0.5 mL of PBS and then treated with 0.5 mL of ice-cold 5% trichloroacetic acid per well. After 15 min, the trichloroacetic acid was aspirated and the cell material solubilized by the addition of 0.5 mL of 0.25 N sodium hydroxide for 15 min. Four hundred and fifty μL of each solubilized sample were transferred to scintillation vials containing 3 mL of Ecolume scintillation cocktail and then counted in a liquid scintillation counter. Final results are expressed as the percentage of ^3H-thymidine incorporation relative to untreated controls.
As shown in the following table, dose-dependent cytotoxicity is measurable, and in most cases, the IC50 values (concentration of drug conjugate required to reduce ^3H-thymidine incorporation into newly synthesized DNA by 50%) are in the low nanomolar range.
(In general: Dividing cells build labelled thymidine or BrdU into new DNA.)

With `C=CCCN(C(=O)[C@@H](NC(=O)[C@H]1CCCCN1C)C(C)CC)[C@H](C[C@@H](OC(C)=O)c1nc(C(=O)N[C@@H](Cc2ccc(O)cc2)C[C@H](C)C(=O)O)cs1)C(C)C` (stereo partly drawn) [EC0550, N-Homoallyl Tubulysin], the IC50 was determined as 2 nM.

In the case of `CCC(C)[C@H](NC(=O)[C@H]1CCCCN1C)C(=O)N(CSCCS)[C@H](C[C@@H](OC(C)=O)c1nc(C(=O)N[C@@H](Cc2ccc(O)cc2)C[C@H](C)C(=O)O)cs1)C(C)C` (stereo partly drawn) [EC0374, 2-Mercaptoethylthio Tubulysin], the half-inhibitory concentration (IC50) turned out to be 24 nM.

Regarding `CCC(C)[C@H](NC(=O)[C@H]1CCCCN1C)C(=O)N(COCCO)[C@H](C[C@@H](OC(C)=O)c1nc(C(=O)N[C@@H](Cc2ccc(O)cc2)C[C@H](C)C(=O)O)cs1)C(C)C` (stereo partly drawn) [EC0346, 2-Hydroxyethoxy Tubulysin], the IC50 was determined as 18 nM.

Take `CCC(C)[C@H](NC(=O)[C@H]1CCCCN1C)C(=O)N(COC)[C@H](C[C@@H](OC(C)=O)c1nc(C(=O)N[C@@H](Cc2ccc(O)cc2)C[C@H](C)C(=O)O)cs1)C(C)C` (stereo partly drawn) [EC0313, Methoxy Tubulysin]: the IC50 turned out to be 9 nM.

`CCC(C)[C@H](NC(=O)[C@H]1CCCCN1C)C(=O)N(COCCC(C)C)[C@H](C[C@@H](OC(C)=O)c1nc(C(=O)N[C@@H](Cc2ccc(O)cc2)C[C@H](C)C(=O)O)cs1)C(C)C` (stereo partly drawn) [EC0356]: the half-inhibitory concentration (IC50) amounted to 12 nM.

For `CCC(C)[C@H](NC(=O)[C@H]1CCCCN1C)C(=O)N(CO)[C@H](C[C@@H](OC(C)=O)c1nc(C(=O)N[C@@H](Cc2ccc(O)cc2)C[C@H](C)C(=O)O)cs1)C(C)C` (stereo partly drawn) [EC0386], the IC50 came to 42 nM.

For the molecule Tubulysin B [reference compound], the pIC50 is 8.59.

Turning to `CC[C@H](C)[C@H](NC(=O)[C@H]1CCCCN1C)C(=O)N(COC(=O)CC(C)C)[C@H](C[C@@H](OC(C)=O)c1nc(C(=O)N[C@@H](Cc2ccc(O)cc2)C[C@H](C)C(=O)O)cs1)C(C)C` [Tubulysin A, reference compound], the pIC50 was 8.70.

Turning to `CCCSCN(C(=O)[C@@H](NC(=O)[C@H]1CCCCN1C)C(C)CC)[C@H](C[C@@H](OC(C)=O)c1nc(C(=O)N[C@@H](Cc2ccc(O)cc2)C[C@H](C)C(=O)O)cs1)C(C)C` (stereo partly drawn) [EC0623], the IC50 was 0.48 nM.
